{
  "source": "paper PMC11674800",
  "about": "“Second-Generation Antipsychotics Induce Metabolic Disruption in Adipose Tissue-Derived Mesenchymal Stem Cells Through an aPKC-Dependent Pathway” (Cells, 2024)",
  "key": {"ADSCs [1]": {"test_system": "ADSCs", "assay": "Acidic vesicle quantification (Lysotracker)", "format": "cell-based, human", "settings": "for effect of co-treatment on acidic vesicle accumulation in olanzapine-treated cells / reduction of olanzapine-induced accumulation of acidic vesicles: olanzapine 5 μM; for reduction of olanzapine-induced accumulation of acidic vesicles: plus inhibitor 10 μM; for effect of co-treatment on acidic vesicle accumulation in clozapine-treated cells: clozapine 5 µM", "experimental": "After treatment, the medium was removed, and the cells were stained with 50 nM Lysotracker Deep Red (Invitrogen, Waltham, MA, USA) and 5 μg/mL Hoechst 33342 (Sigma). Staining was conducted in the dark at 37 °C for 30 min. Fluorescence signals were captured using a FLoid Cell Imaging Station (Life Technology, Carlsbad, CA, USA). The ratio of Lysotracker red signal to blue nuclear signal was quantified using ImageJ software. For acidic vesicle rescue experiments, ADSCs were plated at a concentration of 10,000 cells per well in 48-well plates."}, "3T3L1 cells": {"test_system": "3T3L1 cells", "assay": "PA accumulation in cells transfected with DOCK2-Pii", "format": "cell-based, mouse", "settings": "olanzapine 5 μM, 16 h, plus inhibitor", "experimental": "Transfection was carried out using Lipofectamine 3000 (Thermo Fisher Scientific, Waltham, MA, USA), following the manufacturer’s instructions. The cells were incubated with the plasmid for 24 h to ensure successful transfection and plasmid expression and were used for experiments 48 h post-transfection."}, "ADSCs [2]": {"test_system": "ADSCs", "assay": "Vacuolization assay", "format": "cell-based, human", "settings": "5 μM, 4 h", "experimental": "After 4 h, pictures were acquired using a phase contrast microscope (DMi1, Leica, Wetzlar, Germany)."}, "LC3B": {"test_system": "LC3B", "assay": "Autophagy induction (LC3B Western blot, LAMP1/LC3B colocalization)", "format": "cell-based, human", "settings": "16 h treatment", "experimental": "(§1) After treatments, whole-cell lysates were prepared using RIPA lysis buffer supplemented with protease inhibitors (AEBSF, aprotinin, bestatin, E-64, EDTA, leupeptin, Sigma-Aldrich, Saint Louis, MO, USA) and orthovanadate (Sigma-Aldrich, Saint Louis, MO, USA). The proteins in the lysates were collected and quantified using the Pierce BCA protein assay kit (Thermo Fisher Scientific, Waltham, MA, USA). Subsequently, the proteins were denatured by heating at 95 °C for 5 min in the presence of 2% Sodium Dodecyl Sulfate (SDS, Sigma-Aldrich, Saint Louis, MO, USA), 150 mM dithiothreitol (DTT, Sigma-Aldrich, Saint Louis, MO, USA), and 0.01% bromophenol blue (Sigma-Aldrich, Saint Louis, MO, USA). The samples were then analyzed using SDS-PAGE (SDS-Polyacrylamide Gel Electrophoresis) and Western blotting (WB).\n(§2) For INSRβ endocytosis experiments, the cells were stimulated with 50 ng/mL insulin for 15 min. For transferrin endocytosis experiments, the cells were incubated with 25 μg/mL Transferrin Texas Red for 5 min. After treatment, the cells were washed with PBS and fixed with 4% PFA for 10 min at room temperature, followed by an additional PBS wash. The cells were then permeabilized by incubating them with cold HEPES-Triton X-100 buffer for 5 min at 4 °C. After permeabilization, the cells were incubated with primary antibodies for 30 min, followed by incubation with Alexa Fluor 488- or 546-conjugated secondary antibodies (Invitrogen, Waltham, MA, USA) and phalloidin, labeled with either Alexa Fluor 546 or 633 (Invitrogen Waltham, MA, USA) for 30 min. After incubation, coverslips were mounted on glass slides using a mounting medium. Images were acquired using a confocal microscope (Leica TCS SP8, Wetzlar, Germany) and analyzed using ImageJ (v 1.52a) software in order to quantify and analyze the fluorescence signals."}, "PKCζ": {"test_system": "PKCζ", "assay": "PKC activation (Western blot, P-PKCζ T560 immunofluorescence)", "format": "cell-based, human", "settings": "16 h", "experimental": "as §1, §2"}, "ADSCs [3]": {"test_system": "ADSCs", "settings": "7 days; 1 to 50 μM"}, "Gas receptors": {"test_system": "Gas receptors", "parameters": "method as in PMID 33152337", "settings": "acts as a suramin analog; cited from earlier work"}, "ADSCs [4]": {"test_system": "ADSCs", "assay": "Phospholipidosis assay (LipidTox Green)", "settings": "5 μM, 16 h", "quoted_text": "The cells were stained with 1X LipidTox Green (Thermo Fisher Scientific, Waltham, MA, USA) for 16 h to visualize lipid content. […] The cells were then washed with PBS and fixed with 4% paraformaldehyde for 15 min in the dark."}, "TFEB": {"test_system": "TFEB", "assay": "TFEB nuclear localization (confocal microscopy)", "format": "cell-based, human", "settings": "olanzapine 5 μM plus inhibitor", "experimental": "as §2"}},
  "note": "Numbered stars: 1 amine (or outer) side, 2 acyl side, 3 side chain; on linkers, the order of the positions; unused ones are H or OH. Bridge positions count the residues as written; N and C are the ends. Square brackets hold non-standard residues; d marks the D form. Peptide text beside a SMILES is read from it. X1 = CC(=O)NC(C(=O)OC(C(C)C)C(N[*:1])C(=O)[*:2])C(O)C(C)C; PhLac = O=C(O)[CH](O)Cc1ccccc1; NMeT = CN[CH](C(=O)O)[CH](C)O; NMeA = CN[CH](C)C(=O)O; NMeDha = C=C(NC)C(=O)O",
  "data": [
    {"molecule": "Cc1nc2sccn2c(=O)c1CCN1CCC(=C(c2ccccc2)c2ccc(F)cc2)CC1", "note": "[R59022]", "values": [
      {"measurement": "effect of co-treatment on acidic vesicle accumulation in olanzapine-treated cells", "setting": "ADSCs [1]; 16 h, plus inhibitor", "result": "did not affect"},
      {"measurement": "effect of co-treatment on PA levels in olanzapine-treated cells", "setting": "3T3L1 cells", "result": "did not affect"}
    ]},
    {"molecule": "C[C@@H]1C[C@@H]([C@H](O)CC2CC(=O)NC(=O)C2)C(=O)[C@@H](C)C1", "note": "[CHX, cycloheximide]", "values": [
      {"measurement": "effect of co-treatment on acidic vesicle accumulation (Lysotracker) in both olanzapine- and clozapine-treated cells", "setting": "ADSCs [1]; SGAs 5 µM, 16 h, plus inhibitor", "result": "significant reduction"}
    ]},
    {"molecule": "CN1CCN(C2=Nc3cc(Cl)ccc3Nc3ccccc32)CC1", "note": "[clozapine]", "values": [
      {"measurement": "acidic compartment accumulation (Lysotracker staining)", "setting": "ADSCs [1]; 0.5-10 µM, 24 h, 72 h, 7 days", "result": "progressive time- and dose-dependent increase"},
      {"measurement": "concentrations at which acidic compartment accumulation was observed", "setting": "ADSCs [1]; ADSCs", "result": "below 1 µM"},
      {"measurement": "vacuolization induction", "setting": "ADSCs [2]", "result": "absent"},
      {"measurement": "colocalization of LAMP1 with LC3B", "setting": "LC3B", "result": "increased colocalization"},
      {"measurement": "conversion of LC3B-I to LC3B-II", "setting": "LC3B", "result": "significantly increased"},
      {"measurement": "canonical PKCs (cPKCs) and atypical PKCζ activation state", "setting": "PKCζ; 5 μM, Western blot", "result": "activation"},
      {"measurement": "concentrations showing significant toxicity", "setting": "ADSCs [3]", "result": "above 25 μM"}
    ]},
    {"molecule": "CC1CCc2c(cc(Br)c(F)c2Br)N1C=O", "note": "(centres unmarked) [CE3F4]", "values": [
      {"measurement": "reduction of olanzapine-induced accumulation of acidic vesicles", "setting": "ADSCs [1]; 16 h", "result": "at least 50%"},
      {"measurement": "effect of co-treatment on PA levels in olanzapine-treated cells", "setting": "3T3L1 cells", "result": "markedly reduced"}
    ]},
    {"molecule": "C=C1C(=O)NC(C)C(=O)N(C)C(C)C(=O)NC(C(OC(=O)C(NC(C)=O)C(O)C(C)C)C(C)C)C(=O)N(C)C(C(C)OC)C(=O)OC(C)C(NC(C)=O)C(=O)OC(Cc2ccccc2)C(=O)N1C", "note": "(centres unmarked) [YM254890] (Ac-T[PhLac][NMeDha]A[NMeA][X1][NMeT](Me); ester 1-C; configuration not given here)", "values": [
      {"measurement": "effect of co-treatment on acidic vesicle accumulation in olanzapine-treated cells", "setting": "ADSCs [1]; 16 h, plus inhibitor", "result": "strongest effect"},
      {"measurement": "reduction of olanzapine-induced accumulation of acidic vesicles", "setting": "ADSCs [1]; 16 h", "result": "at least 50%"},
      {"measurement": "PKCζ phosphorylation in olanzapine-treated cells, co-treatment", "setting": "PKCζ; olanzapine 5 μM, plus inhibitor", "result": "diminished"},
      {"measurement": "effect of co-treatment on PA levels in olanzapine-treated cells", "setting": "3T3L1 cells", "result": "markedly reduced"},
      {"measurement": "concentrations blocking Gas receptors", "setting": "Gas receptors", "result": "below 10 μM"}
    ]},
    {"molecule": "Cc1ccc(C(=O)Nc2ccc(S(=O)(=O)O)c3cc(S(=O)(=O)O)cc(S(=O)(=O)O)c23)cc1NC(=O)c1cccc(NC(=O)Nc2cccc(C(=O)Nc3cc(C(=O)Nc4ccc(S(=O)(=O)O)c5cc(S(=O)(=O)O)cc(S(=O)(=O)O)c45)ccc3C)c2)c1", "note": "[suramin]", "values": [
      {"measurement": "reduction of olanzapine-induced accumulation of acidic vesicles", "setting": "ADSCs [1]; 16 h", "result": "at least 50%"}
    ]},
    {"molecule": "CN(C)CCCn1cc(C2=C(c3c[nH]c4ccccc34)C(=O)NC2=O)c2ccccc21", "note": "[Go6850]", "values": [
      {"measurement": "effect of co-treatment on acidic vesicle accumulation in clozapine-treated cells", "setting": "ADSCs [1]; 16 h, plus inhibitor", "result": "only partially reduced"}
    ]},
    {"molecule": "CNCCC(Oc1ccc(C(F)(F)F)cc1)c1ccccc1", "note": "(centres unmarked) [fluoxetine]", "values": [
      {"measurement": "vacuolization induction", "setting": "ADSCs [2]", "result": "prominently observed"},
      {"measurement": "phospholipidosis induction", "setting": "ADSCs [4]", "result": "prominently observed"}
    ]},
    {"molecule": "CN1CCN(C(=O)C2C(C(=O)O)[C@H]3CC[C@@H]2O3)CC1", "note": "(some centres unmarked) [LB100]", "values": [
      {"measurement": "effect of co-treatment on acidic vesicle accumulation in olanzapine-treated cells", "setting": "ADSCs [1]; 16 h, plus inhibitor", "result": "significant reduction"},
      {"measurement": "effect of co-treatment on TFEB nuclear localization induced by olanzapine", "setting": "TFEB", "result": "complete abrogation"}
    ]},
    {"molecule": "Nc1ncnc2c1ncn2C1CCCO1", "note": "(centres unmarked) [SQ22]", "values": [
      {"measurement": "reduction of olanzapine-induced accumulation of acidic vesicles", "setting": "ADSCs [1]; 16 h", "result": "at least 50%"}
    ]},
    {"molecule": "CC(C)(C)c1ccc(C(=O)CCCN2CCC(OC(c3ccccc3)c3ccccc3)CC2)cc1", "note": "[ebastine]", "values": [
      {"measurement": "vacuolization induction", "setting": "ADSCs [2]", "result": "prominently observed"}
    ]},
    {"molecule": "O=C(NCCN1CCC(n2c(=O)[nH]c3ccccc32)CC1)c1cc2cc(F)ccc2[nH]1", "note": "[FIPI]", "values": [
      {"measurement": "effect of co-treatment on acidic vesicle accumulation in olanzapine-treated cells", "setting": "ADSCs [1]; 16 h, plus inhibitor", "result": "significantly reduced"},
      {"measurement": "effect of co-treatment on PA levels in olanzapine-treated cells", "setting": "3T3L1 cells", "result": "significantly reduced"}
    ]},
    {"molecule": "Cn1cnc(N)c2ncnc1-2", "note": "[3-MA, 3-methyladenine]", "values": [
      {"measurement": "effect of co-treatment on acidic vesicle accumulation in clozapine-treated cells", "setting": "ADSCs [1]; 16 h, plus inhibitor", "result": "significantly reduced"},
      {"measurement": "effect of co-treatment on acidic vesicle accumulation in olanzapine-treated cells", "setting": "ADSCs [1]; 16 h, plus inhibitor", "result": "not seen"}
    ]}
  ]
}
